Data on 22 compounds can be found in patent publication US6797700B2, “Antithrombotic azacycloalkylalkanoyl peptides and pseudopeptides” (Aventis Pharmaceuticals, Inc., priority 1993, dated 2004).

A word on the IC50: it is the concentration at which inhibition is half-maximal.

The subject of experiment [1] is fixed activated platelets. Put plainly: Platelet Aggregation Assay (fixed-activated platelets, fibrinogen-mediated aggregation). In kind it is cell-based. Conditions: aggregation initiated by human fibrinogen 250 μg/ml, read-out: Inhibition of Fixed Platelet Aggregation (IC50 μM). On the procedure:
Preparation of Fixed-Activated Platelets
Platelets are isolated from human platelet concentrates using the gel-filtration technique as described by Marguerie, G. A., et al., J. Biol. Chem. 254, 5357-5363 (1979) and Ruggeri, Z. M., et al., J. Clin. Invest. 72, 1-12 (1983). The platelets are suspended at a concentration of 2×10^8 cells/ml in a modified calcium-free Tyrode's buffer containing 127 mM sodium chloride, 2 mM magnesium chloride, 0.42 mM Na2HPO4, 11.9 mM NaHCO3, 2.9 mM KCl, 5.5 mM glucose, 10 mM HEPES, at a pH of 7.35 and 0.35% human serum albumin (HSA). These washed platelets are activated by addition of human a-thrombin at a final concentration of 2 units/ml, followed by thrombin inhibitor I-2581 at a final concentration of 40 μM. To the activated platelets is added paraformaldehyde to a final concentration of 0.50% and this incubated at room temperature for 30 minutes. The fixed activated platelets are then collected by centrifugation at 650×g for 15 minutes. The platelet pellets are washed four times with the above Tyrode's-0.35% HSA buffer and resuspended to 2×10^8 cells/ml in the same buffer.
Platelet Aggregation Assay
The fixed activated platelets are incubated with a selected dose of the compound to be tested for platelet aggregation inhibition for one minute and aggregation initiated by addition of human fibrinogen to a final concentration of 250 μg/ml. A platelet aggregation profiler Model PAP-4 is used to record the platelet aggregation. The extent of inhibition of aggregation is expressed as the percentage of the rate of aggregation observed in the absence of inhibitor.

For experiment [2], the system named is ADP-induced platelet aggregation in canine platelet rich plasma. Nature of the experiment: Inhibition of ADP-Induced ex-vivo Platelet Aggregation after oral administration. In kind it is in vivo, mongrel dogs. The following applies: dog, dose 5 mg/kg; for inhibition at 5 mg/kg: Canis lupus familiaris, Platelet. The protocol:
Inhibition of ADP-Induced ex-vivo Platelet Aggregation
Control blood samples are obtained 5-10 minutes prior to administration of the test compound in mongrel dogs weighing from 10 to 20 kg. The compound is administered intragasticly, via aqueous gavage, or orally, via gelatin capsule. Blood samples (5 ml) are then obtained at 30 minute intervals for 3 hours, and at 6, 12, and 24 hours after dosing. Each blood sample is obtained by venipuncture of the cephalic vein and is collected directly into a plastic syringe containing one part 3.8% trisodium citrate to nine parts blood.
Ex vivo Canine Platelet Aggregation
The blood samples are centrifuged at 1000 rpm for 10 minutes to obtain platelet rich plasma (PRP). After removal of the PRP, the sample is centrifuged for an additional 10 minutes at 2000 rpm to obtain platelet poor plasma (PPP). Platelet count in the PRP is determined by using a Coulter Counter (Coulter Electronics, Hialeah, Fla.). If the concentration of platelets in the PRP is greater than 300,000 platelets/μl, then the PRP is diluted with PPP to adjust the platelet count to 300,000 platelets/μl. Aliquots of PRP (250 μl) are then placed in siliconized glass cuvettes (7.25×55 mm, Bio/Data Corp, Horsham, Pa.). Epinephrine (final concentration of 1 μM) is then added to the PRP, which is incubated for one minute at 37° C. A stimulator of platelet aggregation, ADP at a final concentration of 10 μM, is then added to the PRP. Platelet aggregation is monitored spectrophotometrically utilizing a light transmission aggregometer (Bio/Data Platelet Aggregation Profiler, Model PAP-4, Bio/Data Corp, Horsham, Pa.). For compound to be tested, the rate of change (slope) of light transmittance and the maximum light transmittance (maximum aggregation) is recorded in duplicate. Platelet aggregation data are reported as the percent decrease (mean±SEM) in slope or maximum aggregation as compared to data obtained from control PRP, which is prepared from blood samples obtained prior to administration of the test compound.

The mark [3] stands for this setting: fixed activated human platelets.
Setting [4] is: 1 h after dosing, read-out: % Inhibition of ex-vivo Platelet Aggregation After Oral Administration, 1 h.
Setting [5] is: 3 h after dosing, read-out: % Inhibition of ex-vivo Platelet Aggregation After Oral Administration, 3 h.
[6] abbreviates: 6 h after dosing, read-out: % Inhibition of ex-vivo Platelet Aggregation After Oral Administration, 6 h.

Read-outs that look alike come from different tables or passages of the source.

Turning to `O=C(O)C[C@H](NC(=O)CNC(=O)CCCC1CCNCC1)C(=O)N[C@@H](Cc1c[nH]c2ccccc12)C(=O)O` [Compound of EPA '481, 4-4(piperidyl)butanoyl glycyl aspartyl tryptophan, reference compound], the IC50 in experiment [1] (setting [3]) was determined as 0.047 µM. Moreover, the “% Inhibition of ex-vivo Platelet Aggregation After Oral Administration, 1 h” value in experiment [2] (1 h after dosing) was found to be 53%. For the same compound, the “% Inhibition of ex-vivo Platelet Aggregation After Oral Administration, 3 h” value in experiment [2] (3 h after dosing) is below 20%.
With `CCN(CC(=O)NC(CC(=O)O)C(=O)NC(CC1CCCCC1)C(=O)O)C(=O)CCCC1CCNCC1` (centres unmarked) [Example 1, N-[N-[N-(4-(piperidin-4-yl)butanoyl)-N-ethylglycyl]aspartyl]-b-cyclogexylalanine], the IC50 in experiment [1] (Homo sapiens, Platelet) was 0.026 µM. Also, the inhibition at 5 mg/kg in experiment [2] (setting [4]) was determined as 100%; in experiment [2] (setting [5]), 100%; in experiment [2] (setting [6]), 100%; in experiment [2] (12 h after dosing, read-out: % Inhibition of ex-vivo Platelet Aggregation After Oral Administration, 12 h) it was 88%; in experiment [2] (24 h after dosing, read-out: % Inhibition of ex-vivo Platelet Aggregation After Oral Administration, 24 h) it was 42%.
Regarding `CCN(CC(=O)NC(CC(=O)O)C(=O)NC(Cc1ccc2ccccc2c1)C(=O)O)C(=O)CCCC1CCNCC1` [Example 8, N-[N-[N-(4(piperidin-4-yl)butanoyl)-N-ethylglycyl]aspartyl]-L-b-naphth-2-yl alanine], the inhibition at 5 mg/kg in experiment [2] (setting [4]) is 30%; in experiment [2] (setting [5]) it was below 20%.
`CCN(CC(=O)NC(CC(=O)O)C(=O)NC(C(=O)O)C(C)C)C(=O)CCC1CCNCC1` (centres unmarked) [Example 9, N-[N-[N-(3-(piperidin-4-yl)propanoyol)-N-ethylglycyl]aspartyl]valine]: the IC50 in experiment [1] (Homo sapiens, Platelet) turned out to be 0.77 µM.
For `CCN(CC(=O)NC(CC(=O)O)C(=O)NC(C(=O)O)C1CCCCC1)C(=O)CCCC1CCNCC1` [Example 13, N-[N-[N-(4-(piperidin-4-yl)butanoyl)-N-ethylglycyl]aspartyl]-L-a-cyclohexyl glycine], the inhibition at 5 mg/kg was 100% in experiment [2] (setting [4]), 100% in experiment [2] (setting [5]) and 25% in experiment [2] (setting [6]).
As for `CCN(CC(=O)NC(CC(=O)O)C(=O)NC(CC1CCC2CCCCC2C1)C(=O)O)C(=O)CCCC1CCNCC1` [Example 17, N-[N-[N-(4-(piperidin-4-yl)butanoyl)-N-ethylglycyl]aspartyl]-L-b-cis-decahydronaphth-2-ylalanine], in experiment [1] (Homo sapiens, Platelet), the IC50 came out at 0.096 µM.
As for `CCN(CC(=O)NC(CC(=O)O)C(=O)OCCCC12CC3CC(CC(C3)C1)C2)C(=O)CCCC1CCNCC1` (centres unmarked) [Example 18, 3-Adamant-1-ylpropyl-N-[N-(4-(piperidin-4-yl)butanoyl)-N-ethylglycyl]aspartate], the IC50 in experiment [1] (Homo sapiens, Platelet) worked out at 0.104 µM.
Still for that read-out and setting: the result for `CCN(CC(=O)NC(CC(=O)O)C(=O)N[C@H](CC1CCCCC1)C(=O)O)C(=O)CCCC1CCNCC1` (stereo partly drawn) [Example 20, N-[N-[N-(4-(piperidin-4-yl)butanoyl)-N-ethylglycyl]aspartyl]-b-cyclohexyl-D-alanine] reads 1.37 µM.
In the case of `CCN(CC(=O)NC(CC(=O)O)C(=O)NC(CC1CCCC2CCCCC21)C(=O)O)C(=O)CCCC1CCNCC1` (centres unmarked) [Example 21, N-[N-[N-(4-(piperidin-4-yl)butanoyl)-N-ethylglycyl]aspartyl]-b-decahydronaphth-1-ylalanine], the IC50 in experiment [1] (setting [3]) was determined as 0.055 µM.
In the case of `CCNC(=O)C(CC1CCCCC1)NC(=O)C(CC(=O)O)NC(=O)CN(CC)C(=O)CCCC1CCNCC1` (centres unmarked) [Example 22, N-[N-[N-(4-(piperidin-4-yl)butanoyl)-N-ethylglycyl]aspartyl]-b-cyclohexylalanine ethyl amide], the IC50 in experiment [1] (Homo sapiens, Platelet) came out at 0.09 µM.
On the same count and under the same terms, the result for `CCN(CC(=O)NC(CC(=O)O)C(=O)NC(CC1CCCCCCC1)C(=O)O)C(=O)CCCC1CCNCC1` (centres unmarked) [Example 23, N-[N-[N-(4-(piperidin-4-yl)butanoyl)-N-ethylglycyl]aspartyl]-b-cyclooctylalanine] reads 0.078 µM.
As to `CCN(CC(=O)NC(CC(=O)O)C(=O)NC(CO)CC1CCCCC1)C(=O)CCCC1CCNCC1` (centres unmarked) [Example 24, N-[N-[N-(4-(piperidin-4-yl)butanoyl)-N-ethylglycyl]aspartyl]-a-cyclohexylmethylethanolamine], the IC50 in experiment [1] (Homo sapiens, Platelet) amounted to 0.129 µM.
Consider `CCN(CC(=O)NC(CC(=O)O)C(=O)NC(CCC1CCCCC1)C(N)=O)C(=O)CCCC1CCNCC1` (centres unmarked) [Example 25, N-[N-[N-(4-(piperidin-4-yl)butanoyl)-N-ethylglycyl]aspartyl]-b-cyclohexylmethylalanine amide], for which the IC50 in experiment [1] (Homo sapiens, Platelet) amounted to 0.046 µM.
On the same count and under the same terms, the result for `CCN(CC(=O)NC(CC(=O)O)C(=O)NC(CC12CC3CC(CC(C3)C1)C2)C(=O)O)C(=O)CCCC1CCNCC1` (centres unmarked) [Example 26, N-[N-[N-(4-(piperidin-4-yl)butanoyl)-N-ethylglycyl]aspartyl]-b-adamant-1-ylalanine] reads 0.029 µM.
On the same count and under the same terms, the result for `CCN(CC(=O)NC(CC(=O)O)C(=O)NC(Cc1cccc2c1CCCC2)C(=O)O)C(=O)CCCC1CCNCC1` (centres unmarked) [Example 27, N-[N-[N-(4-(piperidin-4-yl)butanoyl)-N-ethylglycyl]aspartyl]-b-(1,2,3,4)-tetrahydronaphth-5-ylalanine] reads 0.119 µM.
Same read-out and setting: the result for `CCN(CC(=O)NC(CC(=O)O)C(=O)NC(CC1CCC(C2CCCCC2)CC1)C(=O)O)C(=O)CCCC1CCNCC1` (centres unmarked) [Example 28, N-[N-[N-(4-(piperidin-4-yl)butanoyl)-N-ethylglycyl]aspartyl]-b-(4-cyclohexyl)cyclohexylalanine] reads 0.048 µM; that for `CCN(CC(=O)NC(CC(=O)O)C(=O)NC(CC1CCCCCC1)C(=O)O)C(=O)CCCC1CCNCC1` (centres unmarked) [Example 29, N-[N-[N-(4-(piperidin-4-yl)butanoyl)-N-ethylglycyl]aspartyl]-b-cycloheptylalanine], 0.032 µM; that for `CCN(CC(=O)NC(CC(=O)O)C(=O)NC(CC1CCCCCCC1)C(N)=O)C(=O)CCCC1CCNCC1` (centres unmarked) [Example 30, N-[N-[N-(4-(piperidin-4-yl)butanoyl)-N-ethylglycyl]aspartyl]-b-cyclooctylalanine amide], 0.07 µM.
On to `CCN(CC(=O)NC(CC(=O)O)C(=O)NC(CCCC1CCCCC1)C(=O)O)C(=O)CCCC1CCNCC1` (centres unmarked) [Example 31, N-[N-[N-(4-(piperidin-4-yl)butanoyl)-N-ethylglycyl]aspartyl]-a-cyclohexylpropylglycine], for which the IC50 in experiment [1] (Homo sapiens, Platelet) was 0.053 µM.
Still for that read-out and setting: the result for `CCN(CC(=O)NC(CC(=O)O)C(=O)NC(CCC1CCCCCCC1)C(=O)O)C(=O)CCCC1CCNCC1` (centres unmarked) [Example 32, N-[N-[N-(4-(piperidin-4-yl)butanoyl)-N-ethylglycyl]aspartyl]-b-cyclooctylmethylalanine] reads 0.052 µM.
Still for that read-out and setting: the result for `CCN(CC(=O)NC(CC(=O)O)C(=O)NC(CC1CCCC1)C(=O)O)C(=O)CCCC1CCNCC1` (centres unmarked) [Example 33, N-[N-[N-(4-(piperidin-4-yl)butanoyl)-N-ethylglycyl]aspartyl]-b-cyclopentylalanine] reads 0.047 µM; that for `CCOC(=O)C(CCC1CCCCC1)NC(=O)C(CC(=O)O)NC(=O)CN(CC)C(=O)CCCC1CCNCC1` (centres unmarked) [Example 34, N-[N-[N-(4-(piperidin-4-yl)butanoyl)-N-ethylglycyl]aspartyl]-b-cyclohexylmethylalanine ethyl ester], 0.074 µM.
